Test results from patent publication US5516777A, “Condensed pyrazole derivatives, and androgen inhibitor” (Otsuka Pharmaceutical Co., Ltd., priority 1992, dated 1996).

Legend:
[1] = molecular target: T1, rat prostate androgen receptor (Rattus norvegicus, UniProt P15207); settings: 1 nM ^3 H-mibolerone, 20 hours at 0° C., rat ventral prostate cytosol; read-out: Inhibitory activity on mibolerone specific binding [IC50 (M)]
T1 sequence (P15207 1-902): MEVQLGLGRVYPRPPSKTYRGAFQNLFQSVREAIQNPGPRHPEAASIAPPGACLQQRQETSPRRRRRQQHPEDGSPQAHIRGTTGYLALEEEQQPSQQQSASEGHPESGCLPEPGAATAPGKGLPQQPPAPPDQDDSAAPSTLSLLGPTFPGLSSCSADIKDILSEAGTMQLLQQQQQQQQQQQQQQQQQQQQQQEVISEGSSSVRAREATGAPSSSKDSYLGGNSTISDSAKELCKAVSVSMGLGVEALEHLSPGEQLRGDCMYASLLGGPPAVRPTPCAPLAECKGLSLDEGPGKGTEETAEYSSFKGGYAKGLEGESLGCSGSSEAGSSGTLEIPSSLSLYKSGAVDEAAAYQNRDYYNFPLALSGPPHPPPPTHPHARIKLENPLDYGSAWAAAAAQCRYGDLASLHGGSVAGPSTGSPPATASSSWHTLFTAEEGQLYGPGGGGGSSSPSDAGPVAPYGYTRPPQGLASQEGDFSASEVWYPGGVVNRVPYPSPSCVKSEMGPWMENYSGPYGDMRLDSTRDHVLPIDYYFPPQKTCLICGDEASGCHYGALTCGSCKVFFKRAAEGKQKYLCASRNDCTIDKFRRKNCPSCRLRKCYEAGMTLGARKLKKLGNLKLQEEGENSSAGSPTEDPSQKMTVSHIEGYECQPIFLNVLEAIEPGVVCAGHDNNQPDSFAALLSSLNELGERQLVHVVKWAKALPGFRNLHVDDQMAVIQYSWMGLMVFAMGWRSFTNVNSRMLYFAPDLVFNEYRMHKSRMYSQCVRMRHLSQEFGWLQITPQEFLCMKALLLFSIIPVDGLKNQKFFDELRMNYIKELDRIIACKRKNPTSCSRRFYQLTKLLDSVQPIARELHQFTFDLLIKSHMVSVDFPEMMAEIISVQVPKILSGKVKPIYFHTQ
Protocol: Assay of inhibitory activity to binding of ^3 H-mibolerone on rat prostate androgen receptor
(1) Preparation of Cytosol from Rat Prostate
The rats were killed 24 hours after castration, and the ventral prostate glands were removed, and was gently homogenized, with three volume of buffer solution A (1.5 mM EDTA, 2 mM dithiothreitol, 10 mM molybdate sodium, 10% by volume of glycerol, 10 mM NaF, 25 mM phosphate sodium, pH 7.2) on ice-water bath, in Polytron, and Potter type homogenizer. The obtained homogenate was filtrated through double gauze, and centrifuged at 105,000×g for 60 minutes at 4° C., and the supernatant was obtained as cytoplasm fraction.
(2) Measurement of Specific binding of ^3 H-mibolerone to Prostate Cytoplasm Androgen Receptor
To the cytoplasm fraction obtained in (1) was added ^3 H-mibolerone (87.0 Ci/millimol), so that a final concentration is adjusted to 1 nM, and at the same time, in order to block binding of ^3 H-mibolerone to progestin receptor, triamsinolone acetonide was added to a final concentration of 5 μM, and the final volume was adjusted to 0.4 ml with buffer solution A, and the reaction mixture was incubated for 20 hours at 0° C. After incubation, 0.5 ml of 60% hydroxylapatite slurry (washed and equilibrate with a buffer solution B: 10 mM NaH2 PO4, 20 mM tris-hydrochloric acid, pH 7.2) was added, and incubated for 10 minutes at 0° C., the solution was transferred onto a glass fiber filter, and washed five times with 5 ml portions of buffer solution B containing 0.1% (weight/volume) of Triton X-100, to remove free ^3 H-mibolerone. This glass fiber was transferred into vial, and 10 ml of aquasol- 2 was added, and the radioactivity was measured, and the total binding amount of ^3 H-mibolerone on prostate cytoplasm androgen receptor was determined.
The nonspecific binding amount was determined similarly by adding an unlabeled 5α-DHT in the reaction solution to a final concentration of 1 μM. The difference between the total binding amount and nonspecific binding amount was determined as the specific binding amount on the androgen receptor.
(3) Inhibitory Activity of Sample Compounds on ^3 H-mibolerone Specific Binding
The various concentrations of compounds obtained in the experiments were added simultaneously with ^3 H-mibolerone to incubate same as in (2), and the specific binding amount of ^3 H-mibolerone on androgen receptor was determined. Comparing this value with the value obtained in (2), the IC50 value of inhibitory activity of the compounds on ^3 H-mibolerone specific binding was determined.

[2] = In vitro drug metabolism in rat liver extract; type: in vitro ADME, male Wistar rats; settings: pH 7.4, 37° C.; for remaining at 5 min / remaining at 0.25 h / remaining at 0.5 h / remaining at 1 h: rat liver extract; for remaining at 5 min: read-out: Residual amount of test compound, 5 min.; for remaining at 0.25 h: 15 min., read-out: Residual amount of test compound, 15 min.; for remaining at 0.5 h: 30 min., read-out: Residual amount of test compound, 30 min.; for remaining at 1 h: 60 min., read-out: Residual amount of test compound, 60 min.; for half-life: half-life in the rat liver extract, read-out: Half-time period
Protocol: 2. In vitro drug metabolism in rat liver extract
The resistance of the compound against metabolic degradation by rat liver extract was investigated.
The male Wistar rats (weighing about 200 g) were used after fasting for 24 hours. The rat was sacrificed under ether anesthesia, and the livers were removed and were placed onto the ice.
The liver was minced with scissors under ice-cooling, and homogenized in the presence of 4 volumes of 1.15% KCl-0.1M phosphate buffer (pH 7.4) with a Potter type homogenizer. The homogenates were centrifuged at 9,000×g for 10 minutes at 4° C., and the supernatant filtered through the cheese-cloth was used as an enzyme solution.
The constitution of the reaction mixture was shown in below. 0.1M Buffer was sufficiently bubbled in 95% O2 -5% CO2 gas before use.
Glucose 6-phosphate (60.8 mg.ml)
Nicotineamide (9.16 mg/ml)
The tested samples were dissolved in dimethyl sulfoxide. MgCl2 ·6H2 O was dissolved in a distilled water, and all other reagents were dissolved in 0.1M phosphate buffer. The reaction was initiated by adding enzyme solution, and shaked at 37° C. with 120 cycles/minutes in Spitz test tubes with stoppers. The reaction was stopped by adding methanol after 5, 15, 30 and 60 minutes.
After termination of the reaction, samples were mixed by using of a Vortex mixer, and centrifuged at 3,000 rpm for 10 minutes. The supernatant was applied to a high-performance liquid chromatography of which conditons are shown in below. A residual amount of the mother compound was determined at certain time intervals, whererby half-life of the compound in the rat liver extract was calculated.
Column: Chemcosorb 5C18-300 Å 4.6 mm diameter and 150 mm length
Colume temperature: 50° C.

Row | SMILES | IC50 [1] [M] | remaining at 5 min [2] [%] | remaining at 0.25 h [2] [%] | remaining at 0.5 h [2] [%] | remaining at 1 h [2] [%] | half-life [2] [min]
1 | CC(c1ccccc1)c1ccc(-c2cnn3c(O)ncnc23)cc1 (stereo not drawn) [Example 19, 4-hydroxy-8-[4-(α-methylbenzyl)phenyl]pyrazolo[1,5-a]-1,3,5-triazine] | 3.9e-08 | 94.4 | 84.7 | 68.3 | 42.4 | 52
2 | COc1ccccc1Cc1ccc(-c2cnn3c(O)ncnc23)cc1OC [Example 9] | 9.5e-08 |  |  |  |  | 
3 | Cc1cccc(Cc2ccc(-c3cnn4c(O)ncnc34)cc2)c1 [Example 13, 4-hydroxy-8-[4-(3-methylphenylmethyl)phenyl]pyrazolo[1,5-a]-1,3,5-triazine] | 1.2e-07 | 106 | 100 | 97.6 | 81.4 | > 60
4 | COc1cccc(Cc2ccc(-c3cnn4c(O)ncnc34)cc2OC)c1 [Example 11] | 1.8e-08 | 98.3 | 98.8 | 91.5 | 87.9 | > 60
5 | Cc1cc(-c2cnn3c(O)ccnc23)ccc1Sc1ccccc1 [Compound B1, reference compound] |  | 46.5 | 25.6 | 25.1 | 27 | 4.6
6 | COc1cccc(Cc2ccc(-c3cnn4c(O)ncnc34)cc2)c1 [Example 15, 4-hydroxy-8-[4-(3-methoxyphenylmethyl)phenyl]pyrazolo[1,5-a]-1,3,5-triazine] | 9.9e-08 | 86.1 | 68.9 | 64.7 | 51.9 | > 60
7 | Cc1ccc(Cc2ccc(-c3cnn4c(O)ncnc34)cc2)cc1 [Example 16, 4-hydroxy-8-[4-(4-methylphenylmethyl)phenyl]pyrazolo[1,5-a]-1,3,5-triazine] | 3e-07 |  |  |  |  | 
8 | COc1cc(-c2cnn3c(O)ccnc23)ccc1Sc1ccccc1 [Compound B2, reference compound] |  | 54.3 | 32.9 | 31.4 | 24.4 | 6.5
9 | Cc1cc(-c2cnn3c(O)ncnc23)ccc1Sc1ccccc1 [Compound A2, reference compound] |  | 32.5 | 14.8 | 13.7 | 12.3 | 2.5
10 | COc1ccccc1Cc1ccc(-c2cnn3c(O)ncnc23)cc1 [Example 17, 4-hydroxy-8-[4-(2-methoxyphenylmethyl)phenyl]pyrazolo[1,5-a]-1,3,5-triazine] | 8.7e-07 |  |  |  |  | 
11 | COc1cc(-c2cnn3c(O)ncnc23)ccc1Sc1ccccc1 [Compound A3, reference compound] |  | 38.3 | 18.6 | 19.2 | 16.5 | 3
12 | COc1cc(-c2cnn3c(O)ncnc23)ccc1Cc1ccc(C)cc1 [Example 8] | 1.1e-07 |  |  |  |  | 
13 | Oc1ncnc2c(-c3ccc(Cc4ccc(Cl)cc4)cc3)cnn12 [Example 22, 8-[4-(4-chlorophenylmethyl)phenyl]-4-hydroxypyrazolo[1,5-a]-1,3,5-triazine] | 9.3e-08 |  |  |  |  | 
14 | COc1ccc(Cc2ccc(-c3cnn4c(O)ncnc34)cc2)cc1 [Example 18, 4-hydroxy-8-[4-(4-methoxyphenylmethyl)phenyl]pyrazolo[1,5-a]-1,3,5-triazine] |  | 96.5 | 86.2 | 71.6 | 52.4 | > 60
15 | COc1cc(-c2cnn3c(O)ncnc23)ccc1Cc1ccccc1C [Example 7] | 6.2e-08 |  |  |  |  | 
16 | Oc1ncnc2c(-c3ccc(Sc4ccccc4)cc3)cnn12 [Compound A1, reference compound] |  | 32.3 | 13.8 | 13.1 | 13 | 2.4
17 | Oc1ncnc2c(-c3ccc(Cc4ccccc4)c(Cl)c3)cnn12 [Example 3, 8-(4-benzyl-3-chloro)phenyl-4-hydroxypyrazolo[1,5-a]-1,3,5-triazine] | 4e-07 |  |  |  |  | 
18 | CCCC(c1ccccc1)c1ccc(-c2cnn3c(O)ncnc23)cc1 (stereo not drawn) [Example 20, 4-hydroxy-8-[4-(α-propylbenzyl)phenyl]pyrazolo[1,5-a]-1,3,5-triazine] | 2e-07 |  |  |  |  | 
19 | Oc1ncnc2c(-c3ccc(Cc4cccc(Cl)c4)cc3)cnn12 [Example 21, 8-[4-(3-chlorophenylmethyl)phenyl]-4-hydroxypyrazolo[1,5-a]-1,3,5-triazine] | 1.1e-07 |  |  |  |  | 

The remaining lines, values ahead:

Row | IC50 [1] [M] | remaining at 5 min [2] [%] | remaining at 0.25 h [2] [%] | remaining at 0.5 h [2] [%] | remaining at 1 h [2] [%] | half-life [2] [min] | SMILES
20 | 2.6e-08 |  |  |  |  |  | COc1cccc(Cc2ccc(-c3cnn4c(O)ccnc34)cc2OC)c1 [Example 24, 7-hydroxy-3-[3-methoxy-4-(3-methoxyphenylmethyl)phenyl]pyrazolo[1,5-a]pyrimidine]
21 | 7.7e-07 |  |  |  |  |  | COc1cc(Cc2ccc(-c3cnn4c(O)ncnc34)cc2)cc(OC)c1 [Example 32, 4-hydroxy-8-[4-(3,5-dimethoxyphenylmethyl)phenyl]pyrazolo[1,5-a]-1,3,5-triazine]
22 | 2.5e-08 |  |  |  |  |  | Cc1cccc(Cc2ccc(-c3cnn4c(O)ccnc34)cc2C)c1 [Example 30]
23 | 2.2e-07 |  |  |  |  |  | Oc1ccnc2c(-c3ccc(Cc4ccc5c(c4)OCO5)cc3)cnn12 [Example 35, 7-hydroxy-4-[4-(3,4-methylenedioxyphenylmethyl)phenyl]pyrazolo[1,5-a]pyrimidine]
24 | 2.8e-08 |  |  |  |  |  | CC(c1ccccc1)c1ccc(-c2cnn3c(O)ccnc23)cc1 (stereo not drawn) [Example 25, 7-hydroxy-3-[4-(α-methylbenzyl)phenyl]pyrazolo[1,5-a]pyrimidine]
25 | 7.5e-07 |  |  |  |  |  | Oc1ncnc2c(-c3ccc(Cc4ccc5c(c4)OCO5)cc3)cnn12 [Example 31, 4-hydroxy-8-[4-(3,4-methylenedioxyphenylmethyl)phenyl]pyrazolo[1,5-a]-1,3,5-triazine]
26 | 1.3e-08 |  |  |  |  |  | COc1cccc(Cc2ccc(-c3cnn4c(O)ccnc34)cc2C)c1 [Example 26, 7-hydroxy-3-[4-(3-methoxyphenylmethyl)-3-methyl]phenylpyrazolo[1,5-a]pyrimidine]
27 | 2.6e-08 |  |  |  |  |  | COc1cccc(C(C)c2ccc(-c3cnn4c(O)ncnc34)cc2)c1 (stereo not drawn) [Example 23, 4-hydroxy-8-{4-[1-(3-methoxyphenyl)ethan-1-yl)phenyl}pyrazolo[1,5-a]-1,3,5-triazine]
28 | 2e-08 |  |  |  |  |  | Cc1cccc(Cc2ccc(-c3cnn4c(O)ncnc34)cc2C)c1 [Example 29, 4-hydroxy-8-[3-methyl-4-(3-methylphenylmethyl)phenyl]pyrazolo[1,5-a]-1,3,5-triazine]
29 | 1.2e-07 |  |  |  |  |  | CC(C)(c1ccccc1)c1ccc(-c2cnn3c(O)ncnc23)cc1 [Example 33, 4-hydroxy-8-[4-(2-phenylporpan-2-yl)phenyl]pyrazolo[1,5-a]-1,3,5-triazine]
30 | 8.2e-08 |  |  |  |  |  | Cc1cccc(Cc2ccc(-c3cnn4c(O)ccnc34)cc2)c1 [Example 27, 7-hydroxy-3-[4-(3-methylphenylmethyl)phenyl]pyrazolo[1,5-a]pyrimidine]
31 | 9e-08 |  |  |  |  |  | CC(C)(c1ccccc1)c1ccc(-c2cnn3c(O)ccnc23)cc1 [Example 34, 7-hydroxy-3-[4-(2-phenylpropan-2-yl)phenyl]pyrazolo[1,5-a]pyrimidinie]
